The source of these data is the NIST ThermoML archive (doi:10.1016/j.jct.2017.08.017).

SMILES strings stand for the structures. “And” between values parts separate entries of the source, which are not always exact repeats. Equal entries are not always repeated. Numbers after ± are expanded uncertainties.

Data set [1] in a line: molar enthalpy of vaporization or sublimation. The following applies: 298.15 K; Crystal; Static calorimetry.
For data set [2] the following is noted: Crystal, Calculated from knudsen effusion weight loss.

Turning to `Oc1ccccc1-c1nc2ccccc2s1` [2-(2-hydroxyphenyl)-1,3-benzothiazole], the molar enthalpy in data set [1] came to 25.1 ± 0.526 kcal/mol.
By vapor or sublimation pressure is commonly meant the equilibrium pressure above the liquid or solid. With `Oc1ccccc1-c1nc2ccccc2o1` [2-(2-hydroxyphenyl)benzoxazole], the “vapor or sublimation pressure” value is 0.000127 ± 0.00012 kPa and 0.00012 ± 0.00012 kPa and 0.000119 ± 0.00012 kPa in data set [2] (331.16 K); 0.000156 ± 0.00012 kPa and 0.000152 ± 0.00012 kPa and 0.00015 ± 0.00012 kPa in data set [2] (333.19 K); 0.000191 ± 0.00012 kPa and 0.000188 ± 0.00012 kPa in data set [2] (335.13 K); 0.000233 ± 0.00012 kPa and 0.00023 ± 0.00012 kPa and 0.000248 ± 0.00012 kPa in data set [2] (337.16 K); 0.000301 ± 0.00012 kPa and 0.000288 ± 0.00012 kPa and 0.000294 ± 0.00012 kPa in data set [2] (339.18 K); 0.000365 ± 0.00012 kPa and 0.000362 ± 0.00012 kPa and 0.000366 ± 0.00012 kPa in data set [2] (341.12 K). Further, the “vapor or sublimation pressure” value was 0.000446 ± 0.00012 kPa and 0.000441 ± 0.00012 kPa and 0.000477 ± 0.00012 kPa in data set [2] (343.16 K); 0.000571 ± 0.00012 kPa and 0.000545 ± 0.00012 kPa and 0.000558 ± 0.00012 kPa in data set [2] (345.17 K); 0.000688 ± 0.00012 kPa and 0.00068 ± 0.00012 kPa in data set [2] (347.11 K); 0.000829 ± 0.00012 kPa and 0.000822 ± 0.00012 kPa and 0.000879 ± 0.00012 kPa in data set [2] (349.16 K); 0.001027 ± 0.00014 kPa and 0.001049 ± 0.00014 kPa and 0.001006 ± 0.00014 kPa in data set [2] (351.16 K); 0.001264 ± 0.00015 kPa and 0.001273 ± 0.00015 kPa and 0.00126 ± 0.00015 kPa in data set [2] (353.12 K). For the same molecule, the molar enthalpy in data set [1] is 24 ± 0.43 kcal/mol.
With `c1ccc(-c2nc3ccccc3s2)cc1` [2-phenylbenzothiazole], in data set [1], the molar enthalpy is 23.7 ± 0.406 kcal/mol.
The same measure, in the same setting: as for `c1ccc(-c2nc3ccccc3o2)cc1` [2-phenylbenzoxazole], the figure is 21.7 ± 0.478 kcal/mol.
